The structures appear in SMILES notation.

Data on 19 molecules can be found in patent US20250221966A1, “RXFP1 AGONISTS” (BRISTOL-MYERS SQUIBB COMPANY, priority 2021, published 2025).

The test concerns the target T1, human RXFP1 (Homo sapiens, UniProt Q9HBX9).
T1 construct: expressed in transfected cells
T1 sequence (Q9HBX9 1-757): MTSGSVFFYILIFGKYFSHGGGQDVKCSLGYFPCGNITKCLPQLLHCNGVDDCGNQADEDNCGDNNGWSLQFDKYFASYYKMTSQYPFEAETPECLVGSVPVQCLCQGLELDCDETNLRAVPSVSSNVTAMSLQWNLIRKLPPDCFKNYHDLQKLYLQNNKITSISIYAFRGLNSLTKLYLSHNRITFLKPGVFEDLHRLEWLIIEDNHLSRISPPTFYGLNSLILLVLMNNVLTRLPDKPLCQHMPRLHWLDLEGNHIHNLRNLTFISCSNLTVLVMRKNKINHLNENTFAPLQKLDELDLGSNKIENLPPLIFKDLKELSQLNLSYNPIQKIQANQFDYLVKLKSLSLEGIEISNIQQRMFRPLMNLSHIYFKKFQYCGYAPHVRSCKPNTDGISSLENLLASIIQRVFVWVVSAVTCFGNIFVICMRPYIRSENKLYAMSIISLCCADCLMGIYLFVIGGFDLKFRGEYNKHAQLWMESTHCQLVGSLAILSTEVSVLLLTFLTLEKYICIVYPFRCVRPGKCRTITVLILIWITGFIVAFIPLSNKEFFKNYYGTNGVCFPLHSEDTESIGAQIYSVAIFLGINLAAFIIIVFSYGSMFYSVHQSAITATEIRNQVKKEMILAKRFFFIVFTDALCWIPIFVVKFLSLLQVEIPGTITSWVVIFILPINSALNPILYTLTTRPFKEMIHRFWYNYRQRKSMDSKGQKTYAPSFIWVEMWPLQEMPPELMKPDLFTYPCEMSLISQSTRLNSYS
Description: RXFP1 cAMP assay (hRXFP1 HEK293 cAMP assay, HTRF). The test is classed as cell-based. To be noted: HEK293 cells stably expressing human RXFP1, 30 min at room temperature, read-out: cAMP hRXFP1 HEK293 Assay EC50. Summed up:
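HEK293 cells stably expressing human RXFP1 (1500 cells/well) in HBSS/20 mM HEPES/0.05% BSA/0.5 mM IBMX. Compounds were tested at 0.010 nM–50 μM final (2% DMSO) for 30 min at room temperature. cAMP was measured by HTRF and values derived by 4-parameter logistic fit.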
On the technique in general: Cyclic AMP is a second messenger, typically raised through Gs and lowered through Gi signalling.
On to `COc1ccc(-c2cc(S(C)(=O)=O)ccc2F)cc1C(=O)N[C@H]1[C@@H](C(=O)Nc2ccc(F)c(C(F)(F)F)c2)[C@H]2CC[C@@H]1/C2=C\C1CC1` [compound 899], for which the EC50 (usually the concentration at which the effect is half-maximal) was 3 nM.

On to `COc1cc(F)c(F)cc1C(=O)N[C@@H]1C2CCC(C2=C(C)C)[C@]1(F)C(=O)Nc1ccc(F)c(C(F)(F)F)c1` (stereo partly shown) [Example 51], for which the EC50 was 790 nM. The value for `COc1ccc(C2=NOC3CC(CO)CC23)cc1C(=O)N[C@H]1[C@@H](C(=O)Nc2ccc(F)c(C(F)(F)F)c2)[C@H]2CC[C@@H]1/C2=C\CC1CC(F)(F)C1` (stereo partly shown) [compound 959] was 6.1 nM. The value for `COc1ccc(C2=NOC3COCC23)cc1C(=O)N[C@H]1[C@@H](C(=O)NC(C)(C)C)[C@H]2CC[C@@H]1/C2=C\C1CC1` (stereo partly shown) [compound 545] was 31.5 nM; that for `COc1ccc(-c2ccnc(C(F)F)c2)cc1C(=O)N[C@@H]1C2CCC(/C2=C/C2CC2)[C@@H]1C(=O)Nc1ccc(F)c(C(F)(F)F)c1` (stereo partly shown) [compound 284] was 109 nM. The value for `COc1ccc(C2CCCN2C(=O)CCO)cc1C(=O)N[C@@H]1C2CCC(C2=CC2CC2)[C@@H]1C(=O)Nc1ccc(F)c(C(F)(F)F)c1` (stereo partly shown) [compound 667] was 384 nM; that for `COc1c(F)cc(C2=NO[C@@H]3C[C@H](CO)CN23)cc1C(=O)N[C@H]1[C@@H](C(=O)Nc2ccc(F)c(C(F)(F)F)c2)[C@H]2CC[C@@H]1/C2=C\C1CC1` [compound 852] was 3.1 nM; that for `COc1cc(F)c(F)cc1C(=O)N[C@@H]1C2CCC(/C2=C/c2cnn(C)c2)[C@@H]1C(=O)Nc1ccc(F)c(C(F)(F)F)c1` (stereo partly shown) [compound 66] was 1700 nM. Consider `COc1ccc(-c2cnc3cc(CO)ccn23)cc1C(=O)N[C@@H]1C2CCC(/C2=C/C2CC2)[C@@H]1C(=O)Nc1ccc(F)c(C(F)(F)F)c1` (stereo partly shown) [compound 974], for which the EC50 is 4.5 nM. With `COc1ccc(C2=NOC3CC(CO)CC23)cc1C(=O)N[C@H]1[C@@H](C(=O)Nc2ccc(F)c(C(F)(F)F)c2)[C@H]2CC[C@@H]1/C2=C\C1CCCC1` (stereo partly shown) [compound 457], the EC50 worked out at 2.1 nM. The value for `Cc1ccc(C2=NOC3COCC23)cc1C(=O)N[C@H]1[C@@H](C(=O)Nc2ccc(F)c(C(F)(F)F)c2)[C@H]2CC[C@@H]1/C2=C\C1CC1` (single isomer, unassigned) [compound 716] was 1980 nM. The value for `COc1ccc(-c2cc(C(OC(=O)Nc3ccccc3)C(F)(F)F)ccc2F)cc1C(=O)N[C@@H]1C2CCC(/C2=C/C2CC2)[C@@H]1C(=O)Nc1ccc(F)c(C(F)(F)F)c1` (single isomer, unassigned) [compound 229] was 7 nM; that for `COc1ccc(C2CCCN2)cc1C(=O)N[C@@H]1C2CCC(C2=CC2CC2)[C@@H]1C(=O)Nc1ccc(F)c(C(F)(F)F)c1` (stereo partly shown) [compound 720] was 3140 nM. For `COc1ccc(C2=NOC3COCC23)cc1C(=O)N[C@H]1[C@@H](C(=O)N[C@H](CF)C2(C)CC2)[C@H]2CC[C@@H]1/C2=C\C1CC1` (stereo partly shown) [compound 771] the value was 3.8 nM; for `COc1ccc(C2=NOC3COCC23)cc1C(=O)N[C@H]1[C@@H](C(=O)NCC2(C)COC2)[C@H]2CC[C@@H]1/C2=C\C1CC1` (stereo partly shown) [compound 675], 485 nM; for `COc1ccc(C2=NOC3COCC23)cc1C(=O)N[C@H]1[C@@H](C(=O)N[C@H](C)c2ccccc2C(F)(F)F)[C@H]2CC[C@@H]1/C2=C\C1CC1` (stereo partly shown) [compound 510], 15.2 nM. With `COc1ccc(-c2cc(C(=O)O)ccc2F)cc1C(=O)N[C@@H]1C2CCC(/C2=C/C2CC2)[C@@H]1C(=O)NC1CC2(CCC2)C1` (stereo partly shown) [compound 301], the EC50 came to 850 nM. The value for `COc1ccc(C2=NOC3COCC23)cc1C(=O)N[C@H]1[C@@H](C(=O)NC2(C)CCCC2)[C@H]2CC[C@@H]1/C2=C\C1CC1` (stereo partly shown) [compound 494] was 10.4 nM; that for `COc1cc(F)c(F)cc1C(=O)N[C@@H]1C2CCC(/C2=C/c2ccc(Cl)cc2)[C@@H]1C(=O)Nc1ccc(F)c(C(F)(F)F)c1` (stereo partly shown) [compound 21] was 55 nM.
